Measurements reported in article PMC9867241, “Antioxidant and Cytotoxic Activity of New Polyphenolic Derivatives of Quinazolin-4(3H)-one: Synthesis and In Vitro Activities Evaluation” (Pharmaceutics, 2022).
Values after ≈ are worked out from the molar mass of the structure shown.

Legend:
[1] = DPPH˙ radical scavenging assay
Experimental: The stock solutions (1 mg/mL) of the tested compounds and the controls were obtained, by dissolving the substances in dimethyl sulfoxide (DMSO). Using Jasco V-530, an UV-VIS spectrophotometer (Jasco International Co., Ltd., Tokyo, Japan), we performed the colorimetric determinations in low-volume single-use 10 mm width cuvettes.
The assays were performed in triplicate and the results are presented as averages for each assay.
The DPPH˙ radical scavenging assay is based on the transfer of one hydrogen from the analyzed compound to the violet stable free radical DPPH˙ (2,2-diphenyl-1-picrylhydrazyl), as we convert it into a yellow compound. The absorbance of the reagent mixed with samples presented inversely proportional values to the amount of DPPH˙ neutralized. The absorbance of the reagent was measured at λ = 517 nm, according to our previous reports. The assay was made in the presence of various concentrations of samples. The used protocol is based on the report of Brand-Williams et al..

[2] = Phosphomolybdate assay for total antioxidant capacity (TAC); parameters: concentration or dose not given beside the values; settings: for TAC, % of Activity of Trolox: relative to Trolox; for TAC, % of Activity of Ascorbic Acid: relative to ascorbic acid
Text: Using the phosphomolybdate assay, we determined the total antioxidant capacity (TAC) of the tested compounds. We measured the solutions’ absorbances against a blank sample at λ = 695 nm, using a previously reported procedure by our group, based on initial literature reports. Using Equation (4), we calculated the TAC of 5a–d and 6a–d compounds.
At acidic pH, the tested compounds transfer one electron to Mo^6+ to reduce it to Mo^5+.

[3] = Cupric reducing antioxidant capacity (CUPRAC) assay; parameters: concentration or dose not given beside the values; settings: for CUPRAC, % of Activity of Trolox: relative to Trolox; for CUPRAC, % of Activity of Ascorbic Acid: relative to ascorbic acid
Experimental: The ability to donate electrons was evaluated for the compounds 5a–d and 6a–d, by the CUPRAC (CUPric reducing antioxidant capacity) method. The absorbance was measured against a blank sample, at λ = 450 nm. The assay was performed based on our group’s previous report by the adaptation of the initial report of Alam et al., Özyürek et al. and Apak et al.. With the use of Equation (4), the cupric ion reduction by compounds 5a–d and 6a–d was expressed as a percentage of the reference compound activity.
The Cu^2+ ions are reduced to Cu^+ ions by the electron-donating compounds. The Cu^+ ions are chelated by neocuproine, giving a colored complex with absorbance proportional to the quantity of Cu^+ ions that resulted.

[4] = Fe^2+ chelation assay (ferrozine competition)
Experimental: In the protocol used for evaluating the Fe^2+ chelating ability of the compounds, the absorbances of the solutions were determined at λ = 562 nm, against a blank sample. The method was adapted from the initial report of Benzie and Strain et al., which was previously reported by our group. Using Equation (5), we calculated the iron chelation capacities of the 5a–d and 6a–d compounds:(5) iron chelation (%)=control absorbance−sample absorbance/control absorbance×100
The chelating capacity of the tested compounds of Fe^2+ was evaluated based on their competition for Fe^2+ with ferrozine.

[5] = test system: A549 (lung adenocarcinoma) cells; test: Cytotoxicity, Alamar blue assay, A549 cells; format: cell-based; settings: Homo sapiens, 24 h exposure
Text: (§1) Normal human foreskin (BJ) fibroblasts and two types of cancer cells, namely A549 (lung adenocarcinoma) and LNCaP (prostate carcinoma) purchased from American Type Culture Collection (Manassas, VA, USA), were used in the experiments. Each cell line was maintained in a different culture medium, depending on the metabolic necessities of the cells. BJ cells were maintained in Dulbecco’s modified Eagle’s medium (DMEM) with low glucose. A549 cells were maintained in DMEM with high glucose […], while LNCaP cells were grown in Roswell Park Memorial Institute (RPMI) 1640 medium with high glucose (5 g/L). All media used were supplemented with 10% fetal bovine serum (FBS) and were refreshed every two days. Cells were used in experiments or subcultured when they reached 70–80% confluence.
(§2) In 100 µL in 96-well plates, a number of 30,000 LNCaP cells, 15,000 A549 cells, and 7500 normal (BJ) cells were seeded. Because the cells have different sizes and volumes, the purpose of the different seedings was to achieve a confluency of 70–80% after 24 h. All types of cells were further exposed to the synthesized compounds (5a–d and 6a–d) for 24 h, at a concentration ranging from 12.5 to 100 µg/mL. Post-exposure, the media were removed, and the cells were washed with phosphate buffer saline (PBS). Their viability was evaluated using Alamar blue (AB) assay as previously described. Briefly, the cells were incubated with a 200 µM resazurin solution for 4 h. Using a Synergy 2 multi-mode microplate reader, we measured the fluorescence. The measurement was performed at λexcitation = 530/25 nm; λemission = 590/35 nm. We conducted the experiments using three biological replicates, each one including 6 technical replicates. As negative controls (NC), cells exposed to culture medium containing 0.2% DMSO were used. Compared to the NC (100%), the results were expressed as relative values. We used IC50 values for the potency evaluation, and calculated them for each cell line, using the dose-effect curves obtained by fitting the experimental data with a 4-parameter logistic curve.
(§3) Mean values ± standard deviation (SD) values of at least three biological replicates were used to calculate experimental data. One-way analysis of variance (ANOVA) with a post hoc Holm–Sidak test was used to statistically examine the data. Using SigmaPlot 11.0 software (Systat, Software Inc., Chicago, IL, USA), we performed the graphical display and data analysis. From a statistical point of view, the results were considered different, at values of p < 0.05.

[6] = test system: LNCaP (prostate carcinoma) cells; test: Cytotoxicity, Alamar blue assay, LNCaP cells; format: cell-based; settings: Homo sapiens, 24 h exposure
Text: as §1, §2, §3

[7] = test system: normal human foreskin fibroblasts (BJ); test: Cytotoxicity, Alamar blue assay, BJ cells; format: cell-based; settings: for IC50: Homo sapiens, Fibroblast, 24 h exposure, Alamar blue
Text: as §1, §2, §3

Structure (SMILES)	IC50 [1] [µM]	IC50 (DPPH˙ scavenging) [1] [µg/mL]	% of DPPH˙ Scavenging ([1]; 1.25 µg/mL) [%]	% of DPPH˙ Scavenging ([1]; 2.5 µg/mL) [%]	% of DPPH˙ Scavenging ([1]; 3.75 µg/mL) [%]	% of DPPH˙ Scavenging ([1]; 5 µg/mL) [%]	% of DPPH˙ Scavenging ([1]; 7.5 µg/mL) [%]	% of DPPH˙ Scavenging ([1]; 10 µg/mL)	% of DPPH˙ Scavenging ([1]; 12.5 µg/mL)	% of DPPH˙ Scavenging ([1]; 15 µg/mL)	TAC, % of Activity of Trolox [2] [%]	TAC, % of Activity of Ascorbic Acid [2] [%]	CUPRAC, % of Activity of Trolox [3] [%]	CUPRAC, % of Activity of Ascorbic Acid [3] [%]	Ferrous ions Chelation Capacity (%) ([4]; 17.70 µg/mL)	Ferrous ions Chelation Capacity (%) ([4]; 20.59 µg/mL)	Ferrous ions Chelation Capacity (%) ([4]; 29.41 µg/mL)	Ferrous ions Chelation Capacity (%) ([4]; 44.11 µg/mL)	Ferrous ions Chelation Capacity (%) ([4]; 58.82 µg/mL)	Ferrous ions Chelation Capacity (%) ([4]; 88.23 µg/mL)	also measured
O=C(CSc1nc2ccccc2c(=O)n1Cc1ccccc1)NN=Cc1ccc(O)c(O)c1O [Compound 5b, 2-((3-Benzyl-4-oxo-3,4-dihydroquinazolin-2-yl)thio)-N’-(2,3,4-trihydroxybenzylidene)acetohydrazide]	7.6	3.62 (≈ 7.6 µM)	37.55	45.21	51.00	56.36	69.66	81.12%	+ (+ represents more than 95%)	+ (+ represents more than 95%)	156.96	81.34	92.75	97.31	- (- represents less than 5%)	- (- represents less than 5%)	- (- represents less than 5%)	- (- represents less than 5%)	- (- represents less than 5%)	- (- represents less than 5%)	Ferrous ions Chelation Capacity (%) ([4]; 117.64 µg/mL): - (- represents less than 5%); Ferrous ions Chelation Capacity (%) ([4]; 257.46 µg/mL): 19.02%; Ferrous ions Chelation Capacity (%) ([4]; 343.28 µg/mL): 35.16%; IC50 [5]: 69.5 µg/mL; IC50 [6]: 70 µg/mL; IC50 [7]: > 100 µg/mL; melting point: 228 °C
CCn1c(SCC(=O)NN=Cc2ccc(O)c(O)c2O)nc2ccccc2c1=O [Compound 5c, 2-((3-Ethyl-4-oxo-3,4-dihydroquinazolin-2-yl)thio)-N’-(2,3,4-trihydroxybenzylidene)acetohydrazide]	4.46	1.85 (≈ 4.46 µM)	44.32	55.40	64.87	73.44	90.15	+ (+ represents more than 95%)	+ (+ represents more than 95%)	+ (+ represents more than 95%)	163.49	84.73	110.95	116.41	- (- represents less than 5%)	- (- represents less than 5%)	- (- represents less than 5%)	- (- represents less than 5%)	- (- represents less than 5%)	- (- represents less than 5%)	Ferrous ions Chelation Capacity (%) ([4]; 117.64 µg/mL): 20.27%; Ferrous ions Chelation Capacity (%) ([4]; 257.46 µg/mL): 65.75%; Ferrous ions Chelation Capacity (%) ([4]; 343.28 µg/mL): 89.24%; IC50 [5]: 49.1 µg/mL; IC50 [6]: 35.9 µg/mL; IC50 [7]: > 100 µg/mL; decrease of cellular viability in BJ cells ([7]; highest concentration tested, 24 h): approximately 40%; melting point: 208 °C
CCCCn1c(SCC(=O)NN=Cc2ccc(O)c(O)c2O)nc2ccccc2c1=O [Compound 5d, 2-((3-Butyl-4-oxo-3,4-dihydroquinazolin-2-yl)thio)-N’-(2,3,4-trihydroxybenzylidene)acetohydrazide]	4.93	2.18 (≈ 4.93 µM)	41.12	53.03	63.53	71.70	87.99	+ (+ represents more than 95%)	+ (+ represents more than 95%)	+ (+ represents more than 95%)	117.87	61.09	106.43	111.66	- (- represents less than 5%)	- (- represents less than 5%)	- (- represents less than 5%)	- (- represents less than 5%)	- (- represents less than 5%)	- (- represents less than 5%)	Ferrous ions Chelation Capacity (%) ([4]; 117.64 µg/mL): 58.18%; Ferrous ions Chelation Capacity (%) ([4]; 257.46 µg/mL): 71.56%; Ferrous ions Chelation Capacity (%) ([4]; 343.28 µg/mL): 80.50%; IC50 [5]: 42.1 µg/mL; IC50 [6]: 56.8 µg/mL; IC50 [7]: > 100 µg/mL; melting point: 239 °C
